From patent US20170119630A1, “BIPHASIC COMPOSITION FOR PERFUME AND PERSONAL CARE APPLICATIONS AND USES THEREOF” (Coty Inc., priority 2014, published 2017)

Experiments:
[1] = Single fragrance migration study in biphasic compositions, GC/MS analysis; type: physicochemical; conditions: for Result in % based on GC/MS analysis, Regular EDT aromatics %: Regular EDT with Fragrance oil Giddy 11598/00; for migration between phases when the amount of water is increased: water ~7.4 wt % to ~27.25 wt %, FIG. 1, GC/MS
Source text: FIG. 1 has been obtained using GC/MS analytical tool. Depending primary on the log P of fragrances and/or secondary of the chemical families/functions of those fragrances, modification of the polarity will have the effect of pushing the fragrance in one preferred phase of the biphasic composition.
To determine the distribution of first fragrance and second fragrance in the biphasic composition three formulations (regular EDT, biphasic composition with low amount of water in the water-alcohol phase, biphasic composition with high amount of water in the water-alcohol phase) were tested and compared using GC/MS analysis and Expert evaluator.

[2] = colorant; cited from earlier work
[3] = Bi phase formula high amount of water in the bottom phase (total water ~27.24%)
[4] = Bi phase formula low amount of water in the bottom phase (total water ~7.4%)

Row | Structure (SMILES) | Result in % based on GC/MS analysis, Lower phase aromatics % [1, 3] [%] | Result in % based on GC/MS analysis, Upper phase aromatics % [1, 3] [%] | Result in % based on GC/MS analysis, Lower phase aromatics % [1, 4] [%] | Result in % based on GC/MS analysis, Upper phase aromatics % [1, 4] [%] | Result in % based on GC/MS analysis, Regular EDT aromatics % [1] [%] | migration between phases when the amount of water is increased [1] | solubility (oil-soluble / water-soluble) [2]
1 | CC(C=O)Cc1ccc(C(C)(C)C)cc1 (stereo not shown) [lilial] | 2.43 | 4.18 | 4.90 | 2.70 | 3.92 |  | 
2 | CCCCCCCCCCCCCC(=O)OC(C)C [Isopropyl Myristate IPM, Isopropyl Myristate] | 0.00 | 13.93 | 4.96 | 23.40 | 13.34 | migrate following the same rules in the oil phase | 
3 | C=CC(C)(CCC=C(C)C)OC(C)=O (stereo not shown) [linalyl acetate] | 1.63 | 3.89 | 3.52 | 3.38 | 3.37 |  | 
4 | CC(C)CC1CC(C)(O)CCO1 (stereo not shown) [florosa] | 5.86 | 3.93 | 5.12 | 1.86 | 3.82 |  | 
5 | O=C(O)c1nn(-c2ccc(S(=O)(=O)O)cc2)c(O)c1N=Nc1ccc(S(=O)(=O)O)cc1 [FD&C Yellow No. 5] |  |  |  |  |  |  | water-soluble
6 | CC(CC=O)CCCC(C)(C)O (stereo not shown) [hydroxycitronelial] | 4.13 | 0.12 | 0.88 | 0.06 | 0.53 |  | 
7 | CC(=O)OC1CCCCC1C(C)(C)C (single isomer, unassigned) [agrumex major isomer, agrumex] | 0.16 | 0.47 | 0.40 | 0.45 | 0.41 |  | 
8 | CC1COCc2cc3c(cc21)C(C)(C)C(C)C3(C)C (stereo not drawn) [galaxolide (main peak), galaxolide] | 1.64 | 22.92 | 15.47 | 26.53 | 20.25 | migrating in the oily phase | 
9 | CCCCCC1C(=O)CCC1CC(=O)OC (stereo not drawn) [hedione trans, hedione] | 26.10 | 11.94 | 18.40 | 6.64 | 13.28 |  | 
10 | O=C1c2ccccc2C(=O)C1c1ccc2ccccc2n1 [D&C Yellow No. 11] |  |  |  |  |  |  | oil-soluble
11 | CCCCCCC(C=O)=Cc1ccccc1 [hexylcinnamic aid, hexylcinnamic aldehyde] | 0.46 | 1.67 | 1.65 | 1.43 | 1.54 | migrating in the oily phase | 
12 | C=CC(C)(O)CCC=C(C)CC (mixture of isomers) [ethyl linalol] | 28.40 | 0.83 | 6.86 | 1.11 | 4.39 | stays in the hydro-alcoholic phase | 
13 | CC(C=O)Cc1ccc2c(c1)OCO2 (stereo not shown) [helional] | 4.10 | 0.91 | 2.03 | 0.40 | 1.32 |  | 
